Key:
Assay type in all cases: in vivo, Sprague-Dawley rats
STZ diabetic rats [1] = experiment: Mechanical nociceptive threshold (Randall-Selitto test); details: non-diabetic rats
Text: A well-established model of streptozotocin (STZ)-induced diabetes in rats was used. Streptozotocin is a glucosamine derivative of nitrosurea which selectively destroys the β cells of the pancreatic islets and causes the development of diabetes with hyperglycemia and glycosuria. The model shares a series of characteristics with human diabetic complications at both a functional level and a biochemical level, such as, for example, a reduced nervous conduction, loss of small-diameter sensory nerve fibers in the skin, reduction in Na+ and K+-ATPase activity and early alterations of the thermal and mechanical nociceptive thresholds. In this study, diabetes was induced in 24 rats with a single intraperitoneal injection of 60 mg/kg of STZ dissolved in a sodium citrate buffer (pH 4.5). 24 rats injected only with the vehicle were used as non-diabetic controls. Hyperglycemia was confirmed by measuring glycosuria 72 hours after the injection of STZ using Keto-Diabur strips (KD-5000; Roche Diagnostics Spa, Italy). […] The animals were then randomized to receive the concentrate of the invention at an HT equivalent dose of 50 mg/kg/day or 50 mg/kg/day of pure HT in drinking water, according to the following treatment groups: The mechanical nociceptive threshold (Randall-Selitto test) was assessed using an electromechanical apparatus (Ugo Basile, Varese, Italy). […]

STZ diabetic rats [2] = experiment: Plasma total cholesterol, HDL and triglycerides; details: 50 mg/kg/day, 5 weeks, mean ± S.E.
Text: A well-established model of streptozotocin (STZ)-induced diabetes in rats was used. Streptozotocin is a glucosamine derivative of nitrosurea which selectively destroys the β cells of the pancreatic islets and causes the development of diabetes with hyperglycemia and glycosuria. The model shares a series of characteristics with human diabetic complications at both a functional level and a biochemical level, such as, for example, a reduced nervous conduction, loss of small-diameter sensory nerve fibers in the skin, reduction in Na+ and K+-ATPase activity and early alterations of the thermal and mechanical nociceptive thresholds. In this study, diabetes was induced in 24 rats with a single intraperitoneal injection of 60 mg/kg of STZ dissolved in a sodium citrate buffer (pH 4.5). 24 rats injected only with the vehicle were used as non-diabetic controls. Hyperglycemia was confirmed by measuring glycosuria 72 hours after the injection of STZ using Keto-Diabur strips (KD-5000; Roche Diagnostics Spa, Italy). Only the animals with glycosuria >5% were classified as diabetic and included in the study. […] The animals were then randomized to receive the concentrate of the invention at an HT equivalent dose of 50 mg/kg/day or 50 mg/kg/day of pure HT in drinking water, according to the following treatment groups: The daily dose of compounds was administered starting from the 7th week after the injection of STZ or the vehicle. The treatment lasted 5 weeks and urine samples were taken. The animals were then sacrificed and the plasma, kidneys and sciatic nerves were removed. The sacrifice took place within 2 hours after the last administration of the concentrate, HT or the vehicle. At the end of the 5-week treatment period, urine and plasma were collected to measure the level of triglycerides (TG), total cholesterol (TC), high-density lipoprotein (HDL) and other parameters using commercially available diagnostic kits.

STZ diabetic rats [3] = experiment: Eye examination and cataract classification
Text: A well-established model of streptozotocin (STZ)-induced diabetes in rats was used. Streptozotocin is a glucosamine derivative of nitrosurea which selectively destroys the β cells of the pancreatic islets and causes the development of diabetes with hyperglycemia and glycosuria. The model shares a series of characteristics with human diabetic complications at both a functional level and a biochemical level, such as, for example, a reduced nervous conduction, loss of small-diameter sensory nerve fibers in the skin, reduction in Na+ and K+-ATPase activity and early alterations of the thermal and mechanical nociceptive thresholds. In this study, diabetes was induced in 24 rats with a single intraperitoneal injection of 60 mg/kg of STZ dissolved in a sodium citrate buffer (pH 4.5). 24 rats injected only with the vehicle were used as non-diabetic controls. Hyperglycemia was confirmed by measuring glycosuria 72 hours after the injection of STZ using Keto-Diabur strips (KD-5000; Roche Diagnostics Spa, Italy). Only the animals with glycosuria >5% were classified as diabetic and included in the study. […] The animals were then randomized to receive the concentrate of the invention at an HT equivalent dose of 50 mg/kg/day or 50 mg/kg/day of pure HT in drinking water, according to the following treatment groups: The opacity of the eyes and of the crystalline lenses was examined every week starting from the seventh/eighth week after the induction of diabetes, the period in which, in the STZ diabetic model, cataracts manifest themselves. Cataract severity was classified using a validated semi-quantitative scale. In particular, the following assessment scheme and the following scores were used: [table] The opacity index was calculated to quantitatively assess the degree of opacity of the crystalline lens by means of the following formula: [formula]

[4] = non-diabetic control rats (CTRL)

## OCCc1ccc(O)c(O)c1 [HT, hydroxytyrosol]
STZ diabetic rats [1]
  effect on mechanical nociceptive threshold: no effect
STZ diabetic rats [2]; STZ diabetic rats
  PLASMA HDL: 48.7 ± 1.6 mg/dL
  PLASMA TC: 118.1 ± 3.0 mg/dL
  PLASMA TG: 457.1 ± 60.7 mg/dL
STZ diabetic rats [2]; [4]
  PLASMA HDL: 27.0 ± 0.4 mg/dL
  PLASMA TC: 84.4 ± 2.1 mg/dL
  PLASMA TG: 111.5 ± 8.6 mg/dL
STZ diabetic rats [3]; end of the fifth week, untreated 67%
  diabetic rats in the fourth cataract phase: 30%
STZ diabetic rats [3]; end of the treatments, untreated none
  eyes with cataracts at stage 0: 3 eyes
STZ diabetic rats [3]; end of treatment, untreated 5.3
  opacity index: 2.0
